Reference: patent US20020137929A1, “1 - (3-heterocyclylphenyl) isothiourea, -isourea, -guanidine and -amidine herbicidal agents” (Intellectual Property Department, BASF Aktiengesellschaft, priority 1998, published 2002)

Experiments:
CYPIR (Rice Flatsedge) = assay: Preemergence weed control under flooded paddy conditions; format: in vivo, Cyperus iria; details: rated 3-4 weeks after treatment
In short: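 Flooded-pot preemergence screen with silt loam and seeds in the upper 0.5 cm. Dose about 0.0313 to 0.500 kg/ha, delivered into flood water; visual 0-9 score after 3 to 4 weeks.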

SETVI (Foxtail, Green) = assay: Postemergence herbicidal evaluation; format: in vivo, Setaria viridis
In short: (§1)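 Compound is applied as a foliar spray to seedlings about two weeks old, formulated in equal parts acetone and water with 0.5% TWEEN 20 and delivered at 40 psi to give about 0.0156–0.500 kg per hectare. Injury is rated visually 0–9 after four to five weeks.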

ZEAMX (Corn, Field) = assay: Preemergence herbicidal evaluation; format: in vivo, Zea mays; details: rated 4-5 weeks after treatment
In short: (§2)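 In this greenhouse assay, monocot and dicot seeds are planted in soil and treated prior to emergence with an aqueous acetone spray (about 0.0156-0.500 kg/ha). Plants are assessed visually against control on a 0-9 scale after 4-5 weeks.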

ECHCG (Barnyardgrass) = assay: Postemergence herbicidal evaluation; format: in vivo, Echinochloa crus-galli
In short: as §1

CYPSE (Flatsedge) [1] = assay: Preemergence weed control under flooded paddy conditions; format: in vivo, Cyperus serotinus; details: rated 3-4 weeks after treatment
In short: (§3)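 Seeds or propagules sown in top 0.5 cm of silt loam soil, flooded 1.5 to 3 cm above surface throughout. Compound in 50/50 v/v aqueous/acetone pipetted into flood water at about 0.0313 to 0.500 kg/ha. Visual 0-9 rating versus control after three to four weeks in greenhouse.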

GALAP (Galium) [2] = assay: Preemergence herbicidal evaluation; format: in vivo, Galium aparine; details: rated 4-5 weeks after treatment
In short: as §2

[3] = system: CHEAL (Lambsquarters, Common); assay: Postemergence herbicidal evaluation; format: in vivo, Chenopodium album
In short: as §1

CASOB (Sicklepod) [4] = assay: Postemergence herbicidal evaluation; format: in vivo, Cassia obtusifolia
In short: as §1

[5] = system: SAGPY (Arrowhead (Pygmaea)); assay: Preemergence weed control under flooded paddy conditions; format: in vivo, Sagittaria pygmaea; details: rated 3-4 weeks after treatment
In short: as §3

AMBEL (Ragweed, Common) = assay: Postemergence herbicidal evaluation; format: in vivo, Ambrosia artemisifolia
In short: as §1

ORYSAT (Rice, Tebonnet) = assay: Postemergence herbicidal evaluation; format: in vivo, Oryza sativa, (L.) Tebonnet
In short: as §1

GALAP (Galium) [6] = assay: Postemergence herbicidal evaluation; format: in vivo, Galium aparine
In short: as §1

CYPSE (Flatsedge) [7] = assay: Postemergence weed control under flooded paddy conditions; format: in vivo, Cyperus serotinus; details: postemergence weeds, 3-4 weeks after treatment
In short: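 With weeds 3 to 5 cm tall and rice at the 1.5 to 2.5 leaf stage, containers were flooded and water held 1.5 to 3 cm above soil. Compounds in 50/50 v/v aqueous/acetone went into the flood water at about 0.0313 to 0.500 kg/ha a.i. Effects were visually rated 0–9 against controls after three to four weeks in the greenhouse.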

CASOB (Sicklepod) [8] = assay: Preemergence herbicidal evaluation; format: in vivo, Cassia obtusifolia; details: rated 4-5 weeks after treatment
In short: as §2

[9] = system: GLXMAW (Soybean, Williams); assay: Postemergence herbicidal evaluation; format: in vivo, Glycine max, (L.) Merr. cv Williams
In short: as §1

Question: What does the source list for `CCOC(=O)CN1C(=O)CSC1=Nc1cc(N2C(=O)C3=C(CCCC3)C2=O)c(F)cc1Cl` [Compound 47, Ethyl 2-{[2-chloro-5-(1-cyclohexene-1,2-dicarboximido)-4-fluorophenyl]imino}-4-oxo-3-thiazolidineacetate]?
Answer: Herbicidal rating CYPIR (CYPIR (Rice Flatsedge); 0.0313 kg/ha): 0.0; Herbicidal rating CYPIR (CYPIR (Rice Flatsedge); 0.0625 kg/ha): 0.0; Herbicidal rating CYPIR (CYPIR (Rice Flatsedge); 0.1250 kg/ha): 4.0; Herbicidal rating CYPIR (CYPIR (Rice Flatsedge); 0.2500 kg/ha): 6.0; Postemergence herbicidal rating SETVI (SETVI (Foxtail, Green); Rate 0.0156 kg/ha): 0.0; Postemergence herbicidal rating SETVI (SETVI (Foxtail, Green); Rate 0.0313 kg/ha): 0.0; Postemergence herbicidal rating SETVI (SETVI (Foxtail, Green); Rate 0.0625 kg/ha): 0.0; Preemergence herbicidal rating ZEAMX (ZEAMX (Corn, Field); rate 0.0156 kg/ha): 0.0; Preemergence herbicidal rating ZEAMX (ZEAMX (Corn, Field); rate 0.0313 kg/ha): 0.0; Preemergence herbicidal rating ZEAMX (ZEAMX (Corn, Field); rate 0.0625 kg/ha): 0.0; Preemergence herbicidal rating ZEAMX (ZEAMX (Corn, Field); rate 0.1250 kg/ha): 0.0; Preemergence herbicidal rating ZEAMX (ZEAMX (Corn, Field); rate 0.2500 kg/ha): 2.0; Postemergence herbicidal rating ECHCG (ECHCG (Barnyardgrass); Rate 0.0156 kg/ha): 0.0; Postemergence herbicidal rating ECHCG (ECHCG (Barnyardgrass); Rate 0.0313 kg/ha): 0.0; Postemergence herbicidal rating ECHCG (ECHCG (Barnyardgrass); Rate 0.0625 kg/ha): 0.0; Herbicidal rating CYPSE (CYPSE (Flatsedge) [1]; 0.0313 kg/ha): 0.0; Herbicidal rating CYPSE (CYPSE (Flatsedge) [1]; 0.0625 kg/ha): 0.0; Herbicidal rating CYPSE (CYPSE (Flatsedge) [1]; 0.1250 kg/ha): 0.0; Herbicidal rating CYPSE (CYPSE (Flatsedge) [1]; 0.2500 kg/ha): 0.0; Preemergence herbicidal rating GALAP (GALAP (Galium) [2]; rate 0.0156 kg/ha): 0.0; Preemergence herbicidal rating GALAP (GALAP (Galium) [2]; rate 0.0313 kg/ha): 0.0; Preemergence herbicidal rating GALAP (GALAP (Galium) [2]; rate 0.0625 kg/ha): 0.0; Preemergence herbicidal rating GALAP (GALAP (Galium) [2]; rate 0.1250 kg/ha): 0.0; Preemergence herbicidal rating GALAP (GALAP (Galium) [2]; rate 0.2500 kg/ha): 9.0; Postemergence herbicidal rating CHEAL ([3]; Rate 0.0156 kg/ha): 3.0; Postemergence herbicidal rating CHEAL ([3]; Rate 0.0313 kg/ha): 4.0; Postemergence herbicidal rating CASOB (CASOB (Sicklepod) [4]; Rate 0.0156 kg/ha): 0.0; Postemergence herbicidal rating CASOB (CASOB (Sicklepod) [4]; Rate 0.0313 kg/ha): 2.0; Postemergence herbicidal rating CASOB (CASOB (Sicklepod) [4]; Rate 0.0625 kg/ha): 2.0; Herbicidal rating SAGPY ([5]; 0.0313 kg/ha): 0.0; Herbicidal rating SAGPY ([5]; 0.0625 kg/ha): 0.0; Herbicidal rating SAGPY ([5]; 0.1250 kg/ha): 4.0; Herbicidal rating SAGPY ([5]; 0.2500 kg/ha): 7.0; Postemergence herbicidal rating AMBEL (AMBEL (Ragweed, Common); Rate 0.0156 kg/ha): 3.0; Postemergence herbicidal rating AMBEL (AMBEL (Ragweed, Common); Rate 0.0313 kg/ha): 9.0; Postemergence herbicidal rating AMBEL (AMBEL (Ragweed, Common); Rate 0.0625 kg/ha): 9.0; Postemergence herbicidal rating ORYSAT (ORYSAT (Rice, Tebonnet); Rate 0.0156 kg/ha): 0.5; Postemergence herbicidal rating ORYSAT (ORYSAT (Rice, Tebonnet); Rate 0.0313 kg/ha): 1.5; Postemergence herbicidal rating ORYSAT (ORYSAT (Rice, Tebonnet); Rate 0.0625 kg/ha): 3.0; Postemergence herbicidal rating GALAP (GALAP (Galium) [6]; Rate 0.0156 kg/ha): 0.0; Postemergence herbicidal rating GALAP (GALAP (Galium) [6]; Rate 0.0313 kg/ha): 3.0; Postemergence herbicidal rating GALAP (GALAP (Galium) [6]; Rate 0.0625 kg/ha): 3.0; Herbicidal rating CYPSE (CYPSE (Flatsedge) [7]; rate 0.0313 kg/ha): 0.0; Herbicidal rating CYPSE (CYPSE (Flatsedge) [7]; rate 0.0625 kg/ha): 0.0; Herbicidal rating CYPSE (CYPSE (Flatsedge) [7]; rate 0.1250 kg/ha): 0.0; Herbicidal rating CYPSE (CYPSE (Flatsedge) [7]; rate 0.2500 kg/ha): 0.0; Preemergence herbicidal rating CASOB (CASOB (Sicklepod) [8]; rate 0.0156 kg/ha): 0.0; Preemergence herbicidal rating CASOB (CASOB (Sicklepod) [8]; rate 0.0313 kg/ha): 0.0; Preemergence herbicidal rating CASOB (CASOB (Sicklepod) [8]; rate 0.0625 kg/ha): 0.0; Preemergence herbicidal rating CASOB (CASOB (Sicklepod) [8]; rate 0.1250 kg/ha): 0.0; Preemergence herbicidal rating CASOB (CASOB (Sicklepod) [8]; rate 0.2500 kg/ha): 0.0; Postemergence herbicidal rating GLXMAW ([9]; Rate 0.0156 kg/ha): 5.5; Postemergence herbicidal rating GLXMAW ([9]; Rate 0.0313 kg/ha): 7.0; Postemergence herbicidal rating GLXMAW ([9]; Rate 0.0625 kg/ha): 7.5
